Reference: the NIST ThermoML archive (doi:10.1021/je060170c)

Assay: xn = mol fraction of the nth substance listed
Conditions: 101 kPa, Liquid; for viscosity: Anton Paar Stabinger viscometer

COc1ccccc1 [anisole] + Cc1ccccc1
Conditions | mass density [kg/m3] | speed of sound [m/s] | viscosity [mPa·s]
288.15 K, x1 = 0.1152 | 886.478 | 1360.7 | 0.676
288.15 K, x1 = 0.2132 | 899.203 | 1369.9 | 0.725
288.15 K, x1 = 0.3098 | 911.684 | 1379.1 | 0.77
288.15 K, x1 = 0.4182 | 925.577 | 1389.6 | 0.832
288.15 K, x1 = 0.5267 | 939.392 | 1400.4 | 0.891
288.15 K, x1 = 0.6209 | 951.306 | 1410 | 0.94
288.15 K, x1 = 0.7382 | 966.034 | 1421.9 | 1.014
288.15 K, x1 = 0.8645 | 981.766 | 1434.9 | 1.094
288.15 K, x1 = 0.927 | 989.474 | 1441.5 | 1.138
288.15 K, x1 = 1 | 998.441 | 1449.1 | 1.188
293.15 K, x1 = 0.1152 | 881.927 | 1339.1 | 0.628
293.15 K, x1 = 0.2132 | 894.629 | 1347.9 | 0.671
293.15 K, x1 = 0.3098 | 907.078 | 1357.9 | 0.71
293.15 K, x1 = 0.4182 | 920.94 | 1367.2 | 0.765
293.15 K, x1 = 0.5267 | 934.732 | 1377.6 | 0.818
293.15 K, x1 = 0.6209 | 946.626 | 1387.6 | 0.861
293.15 K, x1 = 0.7382 | 961.327 | 1398.7 | 0.927
293.15 K, x1 = 0.8645 | 977.029 | 1412.5 | 0.999
293.15 K, x1 = 0.927 | 984.734 | 1418.9 | 1.039
293.15 K, x1 = 1 | 993.653 | 1428.5 | 1.084
298.15 K, x1 = 0.1152 | 877.272 | 1316.5 | 0.594
298.15 K, x1 = 0.2132 | 889.988 | 1325.8 | 0.634
298.15 K, x1 = 0.3098 | 902.448 | 1335 | 0.67
298.15 K, x1 = 0.4182 | – | 1345.3 | 0.721
298.15 K, x1 = 0.5267 | 930.133 | 1356.5 | 0.769
298.15 K, x1 = 0.6209 | 942.044 | 1366.3 | 0.809
298.15 K, x1 = 0.7382 | 956.777 | 1378.8 | 0.871
298.15 K, x1 = 0.8645 | 972.508 | 1392.7 | 0.94
298.15 K, x1 = 0.927 | 980.221 | 1399.6 | 0.977
298.15 K, x1 = 1 | 989.15 | 1408 | 1.017
303.15 K, x1 = 0.1152 | 872.541 | 1295.1 | 0.557
303.15 K, x1 = 0.2132 | 885.247 | 1304.8 | 0.592
303.15 K, x1 = 0.3098 | 897.698 | 1314.4 | 0.623
303.15 K, x1 = 0.4182 | 911.571 | 1325.3 | 0.667
303.15 K, x1 = 0.5267 | 925.369 | 1336.5 | 0.709
303.15 K, x1 = 0.6209 | 937.281 | 1346.4 | 0.745
303.15 K, x1 = 0.7382 | 952.012 | 1358.8 | 0.802
303.15 K, x1 = 0.8645 | 967.753 | 1372.5 | 0.862
303.15 K, x1 = 0.927 | 975.465 | 1379.4 | 0.895
303.15 K, x1 = 1 | 984.374 | 1387.7 | 0.931

COc1ccccc1 [anisole] + Cc1ccccc1C
Conditions | mass density [kg/m3] | speed of sound [m/s] | viscosity [mPa·s]
288.15 K, x1 = 0.0915 | 893.348 | 1395 | 0.885
288.15 K, x1 = 0.198 | 905.888 | 1402.3 | 0.914
288.15 K, x1 = 0.368 | 924.439 | 1409 | 0.944
288.15 K, x1 = 0.4954 | 938.936 | 1415.7 | 0.979
288.15 K, x1 = 0.6554 | 957.421 | 1424.7 | 1.028
288.15 K, x1 = 0.766 | 970.279 | 1431.2 | 1.066
288.15 K, x1 = 0.868 | 982.607 | 1439.4 | 1.133
288.15 K, x1 = 0.916 | 988.769 | 1444.5 | 1.159
288.15 K, x1 = 0.949 | 992.756 | 1447.1 | 1.172
288.15 K, x1 = 1 | 998.44 | 1449.1 | 1.188
293.15 K, x1 = 0.0915 | 889.076 | 1374.4 | 0.821
293.15 K, x1 = 0.198 | 900.83 | 1381.7 | 0.844
293.15 K, x1 = 0.368 | 919.973 | 1388.3 | 0.868
293.15 K, x1 = 0.4954 | 934.513 | 1394.9 | 0.899
293.15 K, x1 = 0.6554 | 953.102 | 1403.9 | 0.942
293.15 K, x1 = 0.766 | 966.072 | 1410.4 | 0.975
293.15 K, x1 = 0.868 | 978.09 | 1418.6 | 1.035
293.15 K, x1 = 0.916 | 983.748 | 1424 | 1.058
293.15 K, x1 = 0.949 | 987.635 | 1426.6 | 1.072
293.15 K, x1 = 1 | 993.649 | 1428.5 | 1.084
298.15 K, x1 = 0.0915 | 885.509 | 1354 | 0.769
298.15 K, x1 = 0.198 | 897.159 | 1359.5 | 0.79
298.15 K, x1 = 0.368 | 916.136 | 1368.6 | 0.813
298.15 K, x1 = 0.4954 | 930.569 | 1375.7 | 0.841
298.15 K, x1 = 0.6554 | 948.998 | 1385.1 | 0.881
298.15 K, x1 = 0.766 | 961.882 | 1391.9 | 0.914
298.15 K, x1 = 0.868 | 973.792 | 1398.6 | 0.974
298.15 K, x1 = 0.916 | 979.418 | 1402 | 0.996
298.15 K, x1 = 0.949 | 983.27 | 1404.3 | 1.005
298.15 K, x1 = 1 | 989.104 | 1408 | 1.017
303.15 K, x1 = 0.0915 | 880.756 | 1333.4 | 0.718
303.15 K, x1 = 0.198 | 892.435 | 1339.3 | 0.735
303.15 K, x1 = 0.368 | 911.407 | 1348.8 | 0.753
303.15 K, x1 = 0.4954 | 925.824 | 1355.9 | 0.776
303.15 K, x1 = 0.6554 | 944.269 | 1365.2 | 0.811
303.15 K, x1 = 0.766 | 957.177 | 1371.8 | 0.84
303.15 K, x1 = 0.868 | 969.125 | 1378.1 | 0.893
303.15 K, x1 = 0.916 | 974.761 | 1381.2 | 0.912
303.15 K, x1 = 0.949 | 978.63 | 1383.3 | 0.922
303.15 K, x1 = 1 | 984.372 | 1386.7 | 0.931
